Data published in US20200236940A1, “2-(HET)ARYL-SUBSTITUTED FUSED HETEROCYCLE DERIVATIVES AS PESTICIDES” (Bayer Aktiengesellschaft, priority 2017, published 2020).

What was measured:
Assay type in all cases: in vivo
[1] = system: Lucilia cuprina; test: Lucilia cuprina test; conditions: after 2 days, L1 larvae
Procedure: Lucilia cuprina Test Solvent: dimethyl sulfoxide To produce a suitable active ingredient formulation, 10 mg of active ingredient are mixed with 0.5 ml of dimethyl sulfoxide, and the concentrate is diluted with water to the desired concentration. About 20 L1 larvae of the Australian sheep blowfly (Lucilia cuprina) are transferred into a test vessel containing minced horsemeat and the active ingredient formulation of the desired concentration. After 2 days, the kill in % is determined. 100% means that all the larvae have been killed; 0% means that no larvae have been killed.

[2] = system: Musca domestica; test: Musca domestica test; conditions: application rate 100 ppm, after 2 days, adult houseflies
Procedure: Musca domestica Test Solvent: dimethyl sulfoxide To produce a suitable active ingredient formulation, 10 mg of active ingredient are mixed with 0.5 ml of dimethyl sulfoxide, and the concentrate is diluted with water to the desired concentration. Vessels containing a sponge treated with sugar solution and the desired concentration of active ingredient formulation are populated with 10 adult houseflies (Musca domestica). After 2 days, the kill in % is determined. 100% means that all the flies were killed; 0% means that no flies were killed.

[3] = system: Phaedon cochleariae; test: Phaedon cochleariae spray test, Chinese cabbage leaf discs; conditions: foliar, 168 h, application rate 100 g/ha, after 7 days, larvae, read-out: efficacy
Procedure: Phaedon cochleariae—Spray Test
(§1) To produce a suitable active ingredient formulation, 1 part by weight of active ingredient is dissolved with the specified parts by weight of solvent and made up to the desired concentration with water containing an emulsifier concentration of 1000 ppm. To produce further test concentrations, the formulation is diluted with emulsifier-containing water.
After 7 days, the efficacy in % is determined. 100% means that all the beetle larvae have been killed; 0% means that no beetle larvae have been killed.

[4] = system: Myzus persicae; test: Myzus persicae spray test (MYZUPE), Chinese cabbage leaf discs; conditions: foliar, 120 h
Procedure: Myzus persicae—Spray Test [table] To produce a suitable active ingredient formulation, 1 part by weight of active ingredient is dissolved with the specified parts by weight of solvent and made up to the desired concentration with water containing an emulsifier concentration of 1000 ppm. To produce further test concentrations, the formulation is diluted with emulsifier-containing water. Discs of Chinese cabbage leaves (Brassica pekinensis) infested by all stages of the green peach aphid (Myzus persicae) are sprayed with an active ingredient formulation of the desired concentration. After 5 days, the efficacy in % is determined. 100% means that all the aphids have been killed; 0% means that no aphids have been killed. Myzus persicae—Spray Test (MYZUPE) [table] To produce a suitable active ingredient formulation, 1 part by weight of active ingredient is dissolved with the specified parts by weight of solvent and made up to the desired concentration with water containing an emulsifier concentration of 1000 ppm. To produce further test concentrations, the formulation is diluted with emulsifier-containing water. Discs of Chinese cabbage leaves (Brassica pekinensis) infested by all stages of the green peach aphid (Myzus persicae) are sprayed with an active ingredient formulation of the desired concentration. After the desired period of time, the efficacy in % is determined. 100% means that all the aphids have been killed; 0% means that no aphids have been killed.

[5] = system: Ctenocephalides felis; test: Ctenocephalides felis oral test; conditions: application rate 100 ppm, after 2 days
Procedure: Ctenocephalides felis—Oral Test Solvent: dimethyl sulfoxide To produce a suitable active ingredient formulation, 10 mg of active ingredient are mixed with 0.5 ml of dimethyl sulfoxide. Dilution with citrated cattle blood gives the desired concentration. About 20 unfed adult cat fleas (Ctenocephalides felis) are placed into a chamber which is closed at the top and bottom with gauze. A metal cylinder whose bottom end is closed with parafilm is placed onto the chamber. The cylinder contains the blood/active ingredient formulation, which can be imbibed by the fleas through the parafilm membrane. After 2 days, the kill in % is determined. 100% means that all of the fleas have been killed; 0% means that none of the fleas have been killed.

[6] = system: Myzus persicae; test: Myzus persicae oral test; conditions: 120 h, application rate 4 ppm, after 5 days, read-out: efficacy
Procedure: Myzus persicae—Oral Test Solvent: 100 parts by weight of acetone To produce a suitable active ingredient formulation, 1 part by weight of active ingredient is dissolved with the stated parts by weight of solvent and made up to the desired concentration with water. 50 μl of the active ingredient formulation are transferred into microtitre plates and made up to a final volume of 200 μl with 150 μl of IPL41 insect medium (33%+15% sugar). Subsequently, the plates are sealed with parafilm, which a mixed population of green peach aphids (Myzus persicae) within a second microtitre plate is able to puncture and imbibe the solution. After 5 days, the efficacy in % is determined. 100% means that all the aphids have been killed; 0% means that no aphids have been killed.

[7] = system: Boophilus microplus; test: Boophilus microplus injection test; conditions: application rate 20 μg/animal, after 7 days, laying of fertile eggs
Procedure: Boophilus microplus—Injection Test Solvent: dimethyl sulfoxide To produce a suitable active ingredient formulation, 10 mg of active ingredient are mixed with 0.5 ml of solvent and the concentrate is diluted to the desired concentration with solvent. 1 μl of the active ingredient solution is injected into the abdomen of 5 engorged adult female cattle ticks (Boophilus microplus). The animals are transferred into dishes and kept in a climate-controlled room. Efficacy is assessed after 7 days by laying of fertile eggs. Eggs which are not visibly fertile are stored in a climate-controlled cabinet until the larvae hatch after about 42 days. An efficacy of 100% means that none of the ticks has laid any fertile eggs; 0% means that all the eggs are fertile.

[8] = system: Myzus persicae; test: Myzus persicae spray test, bell pepper plants; conditions: application rate 20 ppm, after 6 days
Procedure: Myzus persicae—Spray Test Solvent: 14 parts by weight of dimethylformamide Emulsifier: alkylaryl polyglycol ether To produce a suitable active ingredient formulation, 1 part by weight of active ingredient is dissolved with the specified parts by weight of solvent and made up to the desired concentration with water containing an emulsifier concentration of 1000 ppm. To produce further test concentrations, the formulation is diluted with emulsifier-containing water. If the addition of ammonium salts or/and penetrants is required, these are each added in a concentration of 1000 ppm to the formulation solution. Bell pepper plants (Capsicum annuum) severely infested with the green peach aphid (Myzus persicae) are treated by spraying with the active ingredient formulation in the desired concentration. After 6 days, the kill in % is determined. 100% means that all of the aphids have been killed; 0% means that none of the aphids have been killed.

[9] = system: Ctenocephalides felis; test: Ctenocephalides felis in vitro contact test with adult cat fleas; conditions: application rate 5 μg/cm^2 (=500 g/ha), after 48 h
Procedure: Ctenocephalides felis—In Vitro Contact Tests with Adult Cat Fleas For the coating of the test tubes, 9 mg of active ingredient are first dissolved in 1 ml of acetone p.a. and then diluted to the desired concentration with acetone p.a. 250 μl of the solution are distributed homogeneously on the inner walls and the base of a 25 ml glass tube by turning and rocking on an orbital shaker (rocking rotation at 30 rpm for 2 h). With 900 ppm of active ingredient solution and internal surface area 44.7 cm^2, given homogeneous distribution, an area-based dose of 5 μg/cm^2 is achieved. After the solvent has evaporated off, the tubes are populated with 5-10 adult cat fleas (Ctenocephalides felis), sealed with a perforated plastic lid and incubated in a horizontal position at room temperature and ambient humidity. After 48 h, efficacy is determined. To this end, the tubes are stood upright and the fleas are knocked to the base of the tube. Fleas which remain motionless at the base or move in an uncoordinated manner are considered to be dead or moribund. […] 100% efficacy means that all the fleas were dead or moribund. 0% efficacy means that no fleas were harmed.

[10] = system: Nilaparvata lugens; test: Nilaparvata lugens spray test (NILALU); conditions: 96 h, 4 dat, read-out: % efficacy
Procedure: Nilaparvata lugens—Spray Test (NILALU)
as §1, with “water. If the addition of ammonium salts or/and penetrants is required, these are each added in a concentration of 1000 ppm to the formulation solution.” for “water.”
Rice plants (Oryza sativa) are sprayed with an active ingredient formulation of the desired concentration and then populated with larvae of the brown planthopper (Nilaparvata lugens).
[…], the efficacy in % is determined. 100% means that all of the planthoppers have been killed; 0% means that none of the planthoppers have been killed.

[11] = system: Phaedon cochleariae; test: Phaedon cochleariae spray test (PHAECO), cabbage leaves; conditions: 168 h, 7 dat, read-out: % efficacy
Procedure: Phaedon cochleariae—Spray Test (PHAECO)
Solvent: 14 parts by weight of dimethylformamide
Emulsifier: alkylaryl polyglycol ether
as §1, with “water. If the addition of ammonium salts or/and penetrants is required, these are each added in a concentration of 1000 ppm to the formulation solution.” for “water.”
Cabbage leaves (Brassica oleracea) are sprayed with an active ingredient formulation of the desired concentration and populated with larvae of the mustard beetle (Phaedon cochleariae).
After the desired time, the kill in % is determined. 100% means that all the beetle larvae have been killed; 0% means that no beetle larvae have been killed.

[12] = system: Nezara viridula; test: Nezara viridula spray test; conditions: 96 h, NEZAVI, 500 g of ai/ha, 4 dat, read-out: % efficacy
Procedure: Nezara viridula—Spray Test [table] To produce a suitable active ingredient formulation, 1 part by weight of active ingredient is dissolved with the specified parts by weight of solvent and made up to the desired concentration with water containing an emulsifier concentration of 1000 ppm. To produce further test concentrations, the formulation is diluted with emulsifier-containing water. If the addition of ammonium salts or/and penetrants is required, these are each added in a concentration of 1000 ppm to the formulation solution. Barley plants (Hordeum vulgare) infected with larvae of the Southern green shield bug (Nezara viridula) are sprayed with an active ingredient formulation of the desired concentration. After the desired period of time, the efficacy in % is determined. 100% means that all of the shield bugs have been killed; 0% means that none of the shield bugs have been killed.

[13] = system: Spodoptera frugiperda; test: Spodoptera frugiperda spray test (SPODFR S), cotton leaves; conditions: 168 h, 7 dat, read-out: % efficacy
Procedure: Spodoptera frugiperda—Spray Test (SPODFR S) Solvent: 14 parts by weight of dimethylformamide Emulsifier: alkylaryl polyglycol ether To produce a suitable active ingredient formulation, 1 part by weight of active ingredient is dissolved with the specified parts by weight of solvent and made up to the desired concentration with water containing an emulsifier concentration of 1000 ppm. To produce further test concentrations, the formulation is diluted with emulsifier-containing water. If the addition of ammonium salts or/and penetrants is required, these are each added in a concentration of 1000 ppm to the formulation solution. Cotton leaves (Gossypium hirsutum) are sprayed with an active ingredient formulation of the desired concentration and populated with caterpillars of the armyworm (Spodoptera frugiperda). After the desired time, the kill in % is determined. 100% means that all caterpillars have been killed; 0% means that none of the caterpillars have been killed.

[14] = system: Spodoptera frugiperda; test: Spodoptera frugiperda drench test (SPODFR D); conditions: soil, 336 h, 14 dat, read-out: % efficacy
Procedure: Spodoptera frugiperda—Drench Test (SPODFR D) [table] To produce a suitable active ingredient formulation, 1 part by weight of active ingredient is mixed with the specified amounts of solvent and emulsifier, and the concentrate is diluted with water to the desired concentration, it being necessary to take into account the volume of soil which is drenched. It should be ensured that a concentration of 40 ppm of emulsifier in the soil is not exceeded. To produce further test concentrations, water is used for dilution. Maize plants (Zea mays) in pots of soil are watered with an active ingredient formulation of the desired concentration and infected with caterpillars of the armyworm (Spodoptera frugiperda). After the desired time, the kill in % is determined. 100% means that all caterpillars have been killed; 0% means that none of the caterpillars have been killed.

SMILES: CCS(=O)(=O)c1ccc(-n2cncn2)nc1-c1nc2cc(C(F)(F)F)nc(C)c2n1C [Example I-003]
- efficacy (kill) ([1]; application rate 100 ppm): 100%
- efficacy (kill) [2]: 100%
- pest or weed control at 100 g/ha [3]: 83%
- pest or weed control at 20 g/ha ([4]; application rate 20 g/ha, after 5 days, read-out: efficacy): 90%
- efficacy (kill) [5]: 100%
- pest or weed control at 4 ppm [6]: 100%
- efficacy [7]: 100%

SMILES: CCS(=O)(=O)c1ccc(-n2ccnn2)nc1-c1nc2cc(C(F)(F)F)nc(C)c2n1C [Example I-013]
- efficacy (kill) ([1]; application rate 20 ppm): 80%
- efficacy (kill) ([1]; application rate 100 ppm): 100%
- efficacy (kill) [2]: 100%
- efficacy (kill) [8]: 100%
- efficacy [9]: 100%
- pest or weed control at 100 g/ha [3]: 83%
- Emax at 4 g/ha ([4]; MYZUPE, 4 g of ai/ha, 5 dat, read-out: % efficacy): 70%
- efficacy (kill) [5]: 100%
- pest or weed control at 4 ppm [6]: 100%

SMILES: CCS(=O)(=O)c1ccc(-n2ncn(-c3ccc(Cl)cc3)c2=O)nc1-c1nc2cc(C(F)(F)F)ncc2n1C [Prior art WO 2017/055185 (Ex. I-19), reference compound]
- Emax at 100 g/ha ([10]; 100 g of ai/ha): 0%
- Emax at 500 g/ha ([10]; 500 g of ai/ha): 0%
- Emax at 0.8 ppm [11]: 70%
- Emax at 500 g/ha [12]: 0%
- Emax at 20 g/ha ([4]; MYZUPE, 20 g of ai/ha, 5 dat, read-out: % efficacy): 0%
- Emax at 100 g/ha ([4]; MYZUPE, 100 g of ai/ha, 5 dat, read-out: % efficacy): 0%
- Emax at 4 ppm [13]: 35%
- Emax at 20 ppm [14]: 0%
